# Read-outs that look alike come from different tables or passages of the source.
# Experiments:
# [1] = system: transplanted tumor of human glioblastoma cell A172; settings: for Tumor Volume (mm3) (d 1): d1
# Method in brief: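 Nude mice bearing subcutaneous A172 xenografts (cells in matrigel) randomized at ≥100 mm^3, 6 per group; isovaleryl spiramycin I, II or III at 25, 50 or 100 mg/kg given intragastrically for 30 days, temozolomide as comparator. Endpoints: RTV-based T/C (%) and tumor-weight inhibition at sacrifice.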
# [2] = system: transplanted tumor of human bladder cancer cell T-24; experiment: T-24 transplanted tumor in nude mice; settings: for Tumor Volume (mm3) (d30): d 30
# Experimental: Then cell concentration was adjusted to 1×10^7/ml with matrigel, then each nude mouse was inoculated subcutaneously with 0.2 ml of cells at its right armpit and recorded as the first day of inoculation. When the tumor grows to be greater than or equal to 100 mm^3, the mice were randomly divided into 11 groups with 6 mice in each group: isovaleryl spiramycin I groups with doses of 25, 50 and 100 mg/kg, isovaleryl spiramycin II groups with doses of 25, 50 and 100 mg/kg, and isovaleryl spiramycin III groups with doses of 25, 50 and 100 mg/kg. Each group was continuously administered intragastrically for 30 days with a dose of 20 ml/kg. The mice were sacrificed the next day after drug withdrawal and the indicators were tested. The long diameter and short diameter of the tumor, and the body weight of each mouse were recorded every 3 days from drug administration to nude mouse sacrifice.
# The body weight of the nude mice and the long diameter (a) and short diameter (b) of the transplanted tumor were measured every 3 days, and the tumor volume (v), relative tumor volume (RTV) and relative tumor proliferation rate (T/C) are calculated respectively according to the following formulas, wherein V=a×b^2/2; RTV=V/V0 (V0 is the tumor volume before administration, V is the tumor volume before sacrifice), and T/C (%)=treatment group RTV/model control group RTV×100%.
# Each mouse was weighed and sacrificed. After the tumor was completely stripped off from the body of the mouse, the non-tumor tissues such as blood stains and fat were removed to weigh the tumor and calculate the tumor growth inhibition rate. The average tumor weight of each group of mice is used as an indicator of efficacy. Tumor growth inhibition rate (%)=(1−the average tumor weight of the treatment group/the average tumor weight of the model group)×100%.
# [3] = A172, high dose (100 mg/kg in method) i.g. 30 days
# [4] = A172, low dose (25 mg/kg in method) i.g. 30 days
# [5] = A172, medium dose (50 mg/kg in method) i.g. 30 days
# [6] = T-24, high dose (100 mg/kg in method) i.g. 30 days
# [7] = T-24, low dose (25 mg/kg in method) i.g. 30 days
# [8] = T-24, medium dose (50 mg/kg in method) i.g. 30 days
smiles,measurement,setting,value
"CCC(=O)O[C@@H]1CC(=O)O[C@H](C)C/C=C/C=C/[C@H](O[C@H]2CC[C@H](N(C)C)[C@@H](C)O2)[C@H](C)C[C@H](CC=O)[C@H](O[C@@H]2O[C@H](C)[C@@H](O[C@H]3C[C@@](C)(O)[C@@H](OC(=O)CC(C)C)[C@H](C)O3)[C@H](N(C)C)[C@H]2O)[C@H]1OC [Isovaleryl spiramycin III, isovaleryl spiramycin III]",Relative Tumor Proliferation Rate (T/C),[1]; [3],40.08%
same,tumor growth inhibition rate,[1]; [3],59.19%
same,Relative Tumor Proliferation Rate (T/C),[1]; [4],66.45%
same,tumor growth inhibition rate,[1]; [4],15.35%
same,tumor volume and relative tumor volume compared with the model group,"[1]; A172, low, medium and high doses, P<0.05",significantly lower
same,Relative Tumor Proliferation Rate (T/C),[1]; [5],52.89%
same,tumor growth inhibition rate,[1]; [5],32.54%
same,Inhibition Rate (%),"[1]; A172 nude mice, 12.5 mg/kg",15.35%
same,Relative Tumor Proliferation Rate (T/C),"[1]; A172 nude mice, 12.5 mg/kg",66.45%
same,Relative Tumor Volume (RTV),"[1]; A172 nude mice, 12.5 mg/kg",13.47 ± 1.67
same,Tumor Weight,"[1]; A172 nude mice, 12.5 mg/kg",1.18 ± 0.11 g
same,Tumor Volume (mm3) (d 1),"[1]; A172 nude mice, 12.5 mg/kg",121.75 ± 9.98 mm3
same,Tumor Volume (mm3) (d30),"[1]; A172 nude mice, 12.5 mg/kg",1305.51 ± 212.02 mm3
same,Inhibition Rate (%),"[1]; A172 nude mice, 25 mg/kg",32.54%
same,Relative Tumor Proliferation Rate (T/C),"[1]; A172 nude mice, 25 mg/kg",52.89%
same,Relative Tumor Volume (RTV),"[1]; A172 nude mice, 25 mg/kg",12.63 ± 1.27
same,Tumor Weight,"[1]; A172 nude mice, 25 mg/kg",0.94 ± 0.12 g
same,Tumor Volume (mm3) (d 1),"[1]; A172 nude mice, 25 mg/kg",118.81 ± 8.97 mm3
same,Tumor Volume (mm3) (d30),"[1]; A172 nude mice, 25 mg/kg",1047.77 ± 165.77 mm3
same,Inhibition Rate (%),"[1]; A172 nude mice, 50 mg/kg",59.19%
same,Relative Tumor Proliferation Rate (T/C),"[1]; A172 nude mice, 50 mg/kg",40.08%
same,Relative Tumor Volume (RTV),"[1]; A172 nude mice, 50 mg/kg",10.96 ± 0.82
same,Tumor Weight,"[1]; A172 nude mice, 50 mg/kg",0.57 ± 0.05 g
same,Tumor Volume (mm3) (d 1),"[1]; A172 nude mice, 50 mg/kg",118.44 ± 6.21 mm3
same,Tumor Volume (mm3) (d30),"[1]; A172 nude mice, 50 mg/kg",795.73 ± 174.84 mm3
same,mouse weight compared with the model group,"[1]; mouse, in vivo",no significant changes
same,Body Weight (g) (d1),"[1]; mouse, in vivo, 12.5 mg/kg",21.54 ± 0.36 g
same,Body Weight (g) (d30),"[1]; mouse, in vivo, 12.5 mg/kg",20.64 ± 0.54 g
same,Body Weight (g) (d1),"[1]; mouse, in vivo, 25 mg/kg",20.98 ± 0.47 g
same,Body Weight (g) (d30),"[1]; mouse, in vivo, 25 mg/kg",21.54 ± 0.72 g
same,Body Weight (g) (d1),"[1]; mouse, in vivo, 50 mg/kg",21.59 ± 0.32 g
same,Body Weight (g) (d30),"[1]; mouse, in vivo, 50 mg/kg",20.67 ± 0.56 g
same,Relative Tumor Proliferation Rate (T/C),[2]; [6],39.39%
same,tumor growth inhibition rate,[2]; [6],61.30%
same,Relative Tumor Proliferation Rate (T/C),[2]; [7],80.34%
same,tumor growth inhibition rate,[2]; [7],21.00%
same,tumor volume and relative tumor volume compared with the model group,"[2]; T-24, low, medium and high doses, P<0.05",significantly lower
same,Relative Tumor Proliferation Rate (T/C),[2]; [8],62.35%
same,tumor growth inhibition rate,[2]; [8],44.84%
same,Inhibition Rate (%),[2]; dose 25 mg/kg,21.00%
same,Relative Tumor Proliferation Rate (T/C),[2]; dose 25 mg/kg,80.34%
same,Relative Tumor Volume (RTV),[2]; dose 25 mg/kg,10.61 ± 2.24
same,Tumor Weight,[2]; dose 25 mg/kg,1.48 ± 0.43 g
same,Tumor Volume (mm3) (d 1),[2]; dose 25 mg/kg,135.55 ± 18.08 mm3
same,Tumor Volume (mm3) (d30),[2]; dose 25 mg/kg,1427.95 ± 311.97 mm3
same,Inhibition Rate (%),[2]; dose 50 mg/kg,44.84%
same,Relative Tumor Proliferation Rate (T/C),[2]; dose 50 mg/kg,62.35%
same,Relative Tumor Volume (RTV),[2]; dose 50 mg/kg,8.24 ± 0.38
same,Tumor Weight,[2]; dose 50 mg/kg,1.03 ± 0.42 g
same,Tumor Volume (mm3) (d 1),[2]; dose 50 mg/kg,136.32 ± 15.54 mm3
same,Tumor Volume (mm3) (d30),[2]; dose 50 mg/kg,1123.28 ± 140.84 mm3
same,Inhibition Rate (%),[2]; dose 100 mg/kg,61.30%
same,Relative Tumor Proliferation Rate (T/C),[2]; dose 100 mg/kg,39.39%
same,Relative Tumor Volume (RTV),[2]; dose 100 mg/kg,5.20 ± 0.71
same,Tumor Weight,[2]; dose 100 mg/kg,0.73 ± 0.20 g
same,Tumor Volume (mm3) (d 1),[2]; dose 100 mg/kg,134.53 ± 20.46 mm3
same,Tumor Volume (mm3) (d30),[2]; dose 100 mg/kg,697.48 ± 130.89 mm3
same,mouse weight compared with the model group,"[2]; mouse, in vivo",no significant changes
same,Body Weight (g) (d1),"[2]; mouse, in vivo, 25 mg/kg",19.57 ± 0.52 g
same,Body Weight (g) (d30),"[2]; mouse, in vivo, 25 mg/kg",25.72 ± 1.53 g
same,Body Weight (g) (d1),"[2]; mouse, in vivo, 50 mg/kg",19.61 ± 0.44 g
same,Body Weight (g) (d30),"[2]; mouse, in vivo, 50 mg/kg",26.47 ± 0.52 g
same,Body Weight (g) (d1),"[2]; mouse, in vivo, 100 mg/kg",19.90 ± 0.58 g
same,Body Weight (g) (d30),"[2]; mouse, in vivo, 100 mg/kg",25.05 ± 0.93 g
